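48-hour exposure; five concentrations; linearly interpolated endpoints. Definition used: TGI = concentration required for complete inhibition of growth.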
What was measured:
Experiment in all cases: NCI-60 cell line screen, 48 h
LOX IMVI melanoma = system: LOX IMVI melanoma
M14 melanoma = system: M14 melanoma
UACC-62 melanoma = system: UACC-62 melanoma
U251 CNS = system: U251 CNS
COLO 205 colon = system: COLO 205 colon
UO-31 renal = system: UO-31 renal
CAKI-1 renal = system: CAKI-1 renal

| SMILES | TGI (LOX IMVI melanoma) [µM] | TGI (M14 melanoma) [µM] | TGI (UACC-62 melanoma) [µM] | TGI (U251 CNS) [µM] | TGI (COLO 205 colon) [µM] | TGI (UO-31 renal) [µM] | TGI (CAKI-1 renal) [µM] |
| --- | --- | --- | --- | --- | --- | --- | --- |
| O=C(Nc1cc(Cl)ccc1Cl)c1cc2cccc(Br)c2oc1=O | > 100 | > 100 | > 100 | > 100 | > 100 | > 100 | – |
| O=C1C=CC(=O)C2C1Cc1ccccc1C2c1ccccc1 (centres undefined) | > 100 | > 100 | > 100 | 33 | 35.5 | > 100 | > 100 |
| NCCOCn1cc(Cc2cccc(OCc3ccccc3)c2)c(=O)[nH]c1=O | > 100 | > 100 | > 100 | > 100 | > 100 | > 100 | – |
| COc1cc(O)c(C(=O)CC(C)=O)c(OC)c1 | > 100 | > 100 | > 100 | > 100 | > 100 | > 100 | > 100 |
| O=S(=O)(c1ccccc1)c1nccs1 | > 100 | > 100 | > 100 | > 100 | > 100 | > 100 | > 100 |
| Cc1cc(C)nc(NS(=O)(=O)c2ccc(Nc3c4ccccc4nc4c(C(=O)Nc5ccc(S(=O)(=O)Nc6cc(C)on6)cc5)ccc(Cl)c34)cc2)n1 | > 100 | 44 | 80.1 | 30.9 | – | 45.3 | – |
| CCOP(=O)(OCC)/C(C#N)=C\c1ccsc1 | > 100 | > 100 | > 100 | > 100 | > 100 | > 100 | > 100 |
| Cc1c(-c2coc(-c3ccccc3)n2)c(=O)n(-c2ccccc2)n1C | > 100 | > 100 | – | > 100 | > 100 | > 100 | – |
| COc1ccc2c3c(c(C(=O)O)oc13)CCC2 | > 100 | > 100 | > 100 | > 100 | > 100 | > 100 | – |
| Cc1ccc(NC(=O)C(=O)C(C(=O)c2ccc3ccccc3c2)C2OC(=O)c3ccccc32)c(C)c1 (centres undefined) | 32.2 | 36.9 | 17.3 | 17.2 | 25.2 | 36.7 | 32 |
| CCCN(CCC)CCc1cc(C(C)=O)n(S(=O)(=O)c2ccc(C)cc2)c1 | – | 40.2 | > 100 | > 100 | > 100 | > 100 | > 100 |
| CCO/C(CCn1[nH]c(=O)c(Cl)c(Cl)c1=O)=N\NC(=O)C(=O)NN | > 100 | > 100 | > 100 | > 100 | > 100 | > 100 | > 100 |
| CC(N)Cc1ccc(Cl)cc1 (centres undefined) | > 100 | > 100 | > 100 | > 100 | > 100 | > 100 | > 100 |
| NC(=O)COc1c(Br)cc(Br)cc1Br | – | > 100 | > 100 | > 100 | > 100 | > 100 | > 100 |
| CN(C)CCNC(=O)c1cccc2nc3ccc4cccnc4c3nc12 | 1.51 | 3.03 | 1.54 | 4.39 | 1.55 | 2.4 | 6.37 |
| Cc1cc(Br)cc(C)c1NC(=O)C(=O)C(C(=O)c1ccncc1)C1OC(=O)c2ccccc21 (centres undefined) | > 100 | > 100 | > 100 | > 100 | > 100 | > 100 | > 100 |
| C=C1C2C[C@@H]3OC4CC5O[C@]6(CC5OC4C(C)C3OC(=O)CC3CC[C@@H]4OC5C7OC8C[C@](CCC9CC(=C)[C@H](CCC(C[C@H]1C)O2)O9)(OC7C4O3)O[C@@H]85)C[C@@H]1O[C@@]2(CC(C)[C@@H]3OC(CC(=O)CCO)C(O)C[C@@H]3O2)CC(C)[C@@H]1O6 (some centres undefined) | 0.119 | 0.17 | 0.181 | – | < 0.001 | 1.17 | 0.877 |
| C#CCN(N=O)C(=O)NCCCCC(NC(=O)OCc1ccccc1)C(=O)OCc1ccccc1 (centres undefined) | 28 | 68 | > 100 | > 100 | – | > 100 | 56.6 |
| COC1=CC(=O)C(Br)=CC1=O | 34.3 | 33.5 | 32.1 | – | 31 | 31.7 | 32.4 |
| COc1cccc2c1C(=O)c1c(O)c3c(c(O)c1C2=O)C[C@@](O)(C(C)=O)C[C@@H]3OC1CC([N+]([O-])(Cc2ccccc2)Cc2ccccc2)C(O)C(C)O1 (some centres undefined) | 2.41 | 3.07 | 2.83 | 2.48 | – | 2.54 | 2.47 |
| COc1cc2c(c(O)c1C)C(=O)CC(c1ccccc1)O2 (centres undefined) | > 10 | > 10 | > 100 | > 100 | – | > 100 | > 100 |
| S=c1nc(C(c2ccccc2)c2ccccc2)[nH][nH]1 | > 100 | – | > 100 | > 100 | > 100 | > 100 | – |
| COC1=CC(=O)C2C(C1=O)[C@@H]1c3ccccc3OC(C)(C)[C@H]21 (some centres undefined) | 27.2 | 33.8 | – | > 100 | 35.1 | 38.1 | 31 |

— PubChem BioAssay (NCI)
